Reference: patent US4230617A, “Somatostatin analogues” (American Home Products Corporation, priority 1979, dated 1980)
Where a name gives a salt, the structure may show the parent alone. Positions of bridges follow the written chain, without caps; N, C: chain ends. Non-standard residues stand in square brackets, D forms with d. Residues, ends and D or L forms follow the SMILES beside them.

How the values were obtained:
Assay type in all cases: in vivo, albino male rats
[1] = tested on: growth hormone; experiment: Duration test: same procedure with 2 and 4 hour period before blood sampling, growth hormone radioimmunoassay; conditions: rat, 1,000 ug/kg
Procedure: (§1) The in vivo activity of the polypeptides of this invention was established by subjecting the product of Examples 2 and 3 as representative compounds of the invention, to the following standard test procedure: Two groups of ten albino male rats were arranged to provide a control group and a group for study of the compounds of this invention. Nembutal (50 mg/kg) was injected intraperitoneally into each rat. Fifteen minutes late a subcutaneous injection of the test compound or physiological saline (control) was administered separately to each of the two groups of rats. Ten minutes later 0.5 milliliters of arginine (300 mg/ml., pH 7.2) was injected into the rats heart. The rats were decapitated five minutes later and their blood was collected in Trasylol-EDTA. Aliquot samples were radioimmunoassayed for growth hormone, insulin and glucagon. The results of these tests are presented below:
The procedure described in the preceding paragraph was repeated with the exception that a 2 and 4 hour period was allowed to elapse before blood sampling.

[2] = tested on: growth hormone; experiment: Arginine-stimulated growth hormone release in Nembutal-anesthetized rats, blood radioimmunoassay; conditions: rat, * p < 0.01
Procedure: as §1, with “glucagon.” for “glucagon. The results of these tests are presented below:”

[3] = tested on: glucagon; experiment: Arginine-stimulated glucagon release in Nembutal-anesthetized rats, blood radioimmunoassay; conditions: rat
Procedure: as §1, with “glucagon.” for “glucagon. The results of these tests are presented below:”

[4] = tested on: insulin; experiment: Arginine-stimulated insulin release in Nembutal-anesthetized rats, blood radioimmunoassay; conditions: rat
Procedure: as §1, with “glucagon.” for “glucagon. The results of these tests are presented below:”

[5] = 2 hours before blood sampling, * p < 0.01
[6] = 4 hours before blood sampling, + p < 0.05
[7] = summary statement, for periods up to about four hours

With `C[C@@H](O)[C@@H]1NC(=O)[C@H](Cc2ccccc2)NC(=O)[C@H]([C@@H](C)O)NC(=O)[C@H](CCCCN)NC(=O)[C@@H](Cc2c[nH]c3ccccc23)NC(=O)[C@H](Cc2c[nH]c3ccccc23)NC(=O)[C@H](Cc2ccccc2)NC(=O)[C@H](Cc2c[nH]cn2)NC(=O)[C@H](CCCNC(=N)N)NC(=O)[C@@H](N)CSSC[C@@H](C(=O)O)NC(=O)[C@H](CO)NC1=O` [Example 2, L-Cysteinyl-L-arginyl-L-histidyl-L-phenylalanyl-L-tryptophyl-D-tryptophyl-L-lysyl-L-threonyl-L-phenylalanyl-L-threonyl-L-seryl-L-cysteine cyclic (1-12) disulfide tetraacetate salt] (H-CRHFW[dW]KTFTSC-OH; disulfide 1-12) the GH [1, 5] was 51 ± 9 ng/mL, the GH [1, 6] was 60 ± 11 ng/mL and the GH ([2]; 50 μg/kg subcutaneous, control 379 ± 50) was 104 ± 8 ng/mL. It also gave a GH ([2]; 200 μg/kg subcutaneous, control 202 ± 11) of 92 ± 8 ng/mL, a GLUN ([3]; 50 μg/kg subcutaneous, control 119 ± 8, * p < 0.01) of 36 ± 8 pg/mL and a GLUN ([3]; 200 μg/kg subcutaneous, control 85 ± 6, * p < 0.01) of 20 ± 4 pg/mL. For the same compound, the “glucagon release (result in words)” value [3, 7] was “suppress”, the INS ([4]; 50 μg/kg subcutaneous, control 137 ± 25) was 61 ± 4 μU/ml and the INS ([4]; 200 μg/kg subcutaneous, control 238 ± 23, + p < 0.05) was 149 ± 23 μU/ml. For the same compound, the “insulin release (result in words)” value [4, 7] was “suppress”.
For `C[C@@H](O)[C@@H]1NC(=O)[C@H](Cc2ccccc2)NC(=O)[C@H]([C@@H](C)O)NC(=O)[C@H](CCCCN)NC(=O)[C@@H](Cc2c[nH]c3ccccc23)NC(=O)[C@H](Cc2c[nH]cn2)NC(=O)[C@H](Cc2ccccc2)NC(=O)[C@H](Cc2c[nH]cn2)NC(=O)[C@H](CCCNC(=N)N)NC(=O)[C@@H](N)CSSC[C@@H](C(=O)O)NC(=O)[C@H](CO)NC1=O` [Example 3, L-Cysteinyl-L-arginyl-L-histidyl-L-phenylalanyl-L-histidyl-D-tryptophyl-L-lysyl-L-threonyl-L-phenylalanyl-L-threonyl-L-seryl-L-cysteine cyclic (1-12) disulfide tetraacetate salt] (H-CRHFH[dW]KTFTSC-OH; disulfide 1-12), the GH [1, 5] was 181 ± 59 ng/mL, the GH [1, 6] was 129 ± 29 ng/mL and the GH ([2]; 100 μg/kg subcutaneous, control 201 ± 40) was 48 ± 20 ng/mL. For the same compound, the GLUN ([3]; 100 μg/kg subcutaneous, control 89 ± 14) was 72 ± 13 pg/mL and the INS ([4]; 100 μg/kg subcutaneous, control 268 ± 21) was 282 ± 48 μU/ml.
